Assays:
Assay type in all cases: in vivo
Cyp2c70 KO mice [1] = test: Fecal bile acid composition and concentration by LC-MS in Cyp2c70 KO mice; conditions: 4 weeks
Text: (§1) The Cyp2c70 KO mice with Exon 4 deletion were generated by CRISPR/Cas-mediated genome engineering. Cas9 and gRNA (gRNA1 matching reverse strand of the Cyp2c70 gene: […] (SEQ ID NO:1); gRNA2 matching forward strand of the Cyp2c70 gene: […] (SEQ ID NO:2)) were co-injected into fertilized eggs of C57BL/6J mice. One F0 male founder mouse was identified by PCR followed by sequencing analysis to confirm deletion of an 888 bp genome region containing the entire Exon 4. This F0 founder was bred to a WT C57BL/6J mouse to obtain 3 F1 Cyp2c70+/−females confirming germline transmission. Further breeding of the F1 females with WT C57BL/6J mice (the Jackson Lab, Bar Harbor, ME) yielded WT mice and Cyp2c70+/−mice. Subsequent breeding of the Cyp2c70+/−offspring yielded WT mice and Cyp2c70−/− mice (Cyp2c70 KO). The Cyp2c70 KO mice were then bred via KO×KO breeding scheme. The WT littermates were used to generate WT mice via WT×WT breeding scheme. […] Mice were housed in micro-isolator cages with Biofresh performance bedding (Pelleted cellulose) under 7 AM-7 PM light cycle and 7 PM-7 AM dark cycle. GSK was mixed with chow diet to achieve an estimated 5 mg/kg/day intake based on 5 g/day food intake by a 25 g mouse. AAV-Null or AAV-FGF15 was injected via tail vein at a dose of 1×10^11 GC/mouse. Mice were euthanized following a 6 h fast from 9 am to 3 pm. Animals received humane care according to the criteria outlined in the “Guide for the Care and Use of Laboratory Animals.” All animal protocols were approved by the Institutional Animal Care and Use Committee of the University of Oklahoma Health Sciences Center.
(§2) Bile acids were extracted from liver, whole gallbladder bile, whole small intestine with content, and dried feces in 90% ethanol. To collect fecal sample, an individual mouse was placed in a jar briefly and fresh feces were collected. Total bile acid amount was measured by a bile acid assay kit. Bile acid pool was calculated as the total bile acids in liver, gallbladder and small intestine. Bile acid composition in the gallbladder bile and the pooled fecal extracts was analyzed on a Thermo Scientific UltiMate 3000 UHPLC with a Waters Cortecs C18 column and a TSQ Quantis triple quadrupole mass spectrometer. Standard curves for bile acids and internal standard glycine-CDCA-d4 were generated with purified compounds and relative area under the curve (AUC) was calculated. To measure T-CDCA-d4 metabolism in fecal slurry mixtures, pooled fresh fecal sample from each group was resuspended in a reaction buffer consisting of 10% PBS (pH=7.4) and 90% 3 mM sodium acetate (pH=5.2) to a final suspension of 4 mg fecal sample/ml. T-CDCA-d4 was added to a final concentration of 20 ug/ml and the mixture was incubated at 37° C. for 6 h. An equal amount of methanol was added and the mixture was incubated on ice for 1 h to precipitate protein. After centrifugation, an aliquot of the supernatant was vacuum dried and resuspended in injection buffer (0.1% formic acid, 30% acetonitrile, 70% HPLC water), which was used for LC-MS measurement of bile acids as described above.

Cyp2c70 KO mice [2] = test: Liver histopathology, serum transaminases and liver mRNA markers after 4 weeks of treatment in Cyp2c70 KO mice; conditions: female Cyp2c70 KO mice
Text: as §1
Liver tissues and colon tissues were fixed in 4% paraformaldehyde and paraffin embedded. Hematoxylin and Eosin (H&E) staining was performed with an automated stainer. Sirius Red staining was performed with Direct Red 80 solution (Sigma #365548, St. Louis, MO). For immunohistochemistry, paraffin embedded tissues were deparaffinized and rehydrated, and after antigen retrieval, […] sections were incubated first with blocking buffer (5% BSA and 5% goat serum in PBS) for 1 h and then blocking buffer containing primary antibodies overnight at 4° C. After washing with PBS, the sections were incubated with secondary antibodies in SignalStain® Boost IHC Detection Reagent (Cell Signaling, #8114, Danvers, MA) for 1 h. Signal was then visualized using a DAB kit (Cell Signaling, #11724, Danvers, MA). The sections were counterstained with Hematoxylin. Images are acquired by using an EVOS M5000 imaging system (ThermoFisher Scientific, Grand Island, NY).
Total liver RNA was purified with Trizol (Sigma-Aldrich, St. Louis, MO). […] 18S was measured and used for normalization. […]

Cyp2c70 KO mice [3] = test: Gut barrier integrity (colon H&E and ZO-1 immunohistochemistry) in Cyp2c70 KO mice; conditions: 4 weeks
Text: as §1
Liver tissues and colon tissues were fixed in 4% paraformaldehyde and paraffin embedded. Hematoxylin and Eosin (H&E) staining was performed with an automated stainer. Sirius Red staining was performed with Direct Red 80 solution (Sigma #365548, St. Louis, MO). […]

Cyp2c70 KO mice [4] = test: Bile acid metabolism (fecal total bile acids, bile acid pool, gallbladder bile acid composition, liver CYP7A1/CYP8B1 mRNA) in Cyp2c70 KO mice
Text: as §1, §2
Total liver RNA was purified with Trizol (Sigma-Aldrich, St. Louis, MO). Reverse transcription was performed by using Oligo dT primer and SuperScript III reverse transcriptase (ThermoFisher Scientific, Grand Island, NY). Real-time PCR was performed on a Bio-Rad CFX384 Real-time PCR system with iQ SYBR Green Supermix (Bio-Rad, Hercules, CA). 18S was measured and used for normalization. The comparative CT (Ct) method was used to determine the relative mRNA expression with the control group arbitrarily set as “1”.

[5] = female Cyp2c70 KO mice, vs untreated mice

With `CCCC[C@]1(CC)CS(=O)(=O)c2cc(CNC(CC(=O)O)CC(=O)O)c(OC)cc2[C@@H](c2ccccc2)N1` [GSK, GSK2330672] the “fecal DCA abundance (relative)” value (Cyp2c70 KO mice [1]; female Cyp2c70 KO mice) was “increased”, the “fecal LCA abundance (relative)” value (Cyp2c70 KO mice [1]; female Cyp2c70 KO mice, untreated ~90% LCA) was “slightly reduced” and the “fecal DCA amount (absolute)” value (Cyp2c70 KO mice [1]; [5]) was “higher”. For the same compound, the “fecal LCA amount (absolute)” value (Cyp2c70 KO mice [1]; [5]) was “higher”, the “fecal DCA amount” value (Cyp2c70 KO mice [1]; male Cyp2c70 KO mice) was “increased” and the “fecal LCA amount” value (Cyp2c70 KO mice [1]; male Cyp2c70 KO mice) was “did not increase”. The “reduction of liver p21 mRNA” value (Cyp2c70 KO mice [2]; 4 weeks of treatment) was “did not affect”, the “serum transaminases (ALT, AST)” value (Cyp2c70 KO mice [2]; 4 weeks of treatment) was “not altered” and the “portal inflammation (inflammatory infiltration) and ductular reaction” value (Cyp2c70 KO mice [2]; 4 weeks of treatment from 12 weeks of age, F4/80, CK19, H&E stain) was “largely ineffective”. For the same compound, the portal fibrosis (Cyp2c70 KO mice [2]; 4 weeks of treatment, Sirius Red stain) was “largely ineffective”, the “colon ZO-1 level (immunohistochemistry)” value (Cyp2c70 KO mice [3]; female Cyp2c70 KO mice) was “failed to restore” and the “colon ZO-1 level (immunohistochemistry)” value (Cyp2c70 KO mice [3]; male Cyp2c70 KO mice) was “failed to restore”. The “histological features of the colon epithelium (H&E)” value (Cyp2c70 KO mice [3]; male and female Cyp2c70 KO mice) was “did not reveal abnormal histological features”, the “hepatic CYP8B1 expression” value (Cyp2c70 KO mice [4]; female Cyp2c70 KO mice, 4 weeks) was “markedly increased” and the “gallbladder T-CDCA abundance” value (Cyp2c70 KO mice [4]; female Cyp2c70 KO mice, 4 weeks, untreated printed as −70%) was about 40%. For the same compound, the “gallbladder T-DCA abundance” value (Cyp2c70 KO mice [4]; female Cyp2c70 KO mice, 4 weeks, untreated ~1%) was about 30%, the “gallbladder T-CA abundance” value (Cyp2c70 KO mice [4]; female Cyp2c70 KO mice, 4 weeks, vs untreated) was “without affecting” and the “increase of fecal bile acid loss (excretion)” value (Cyp2c70 KO mice [4]; female Cyp2c70 KO mice, after 2 weeks treatment) was about 2 fold. The “reduction of total bile acid pool” value (Cyp2c70 KO mice [4]; female Cyp2c70 KO mice, after 4 weeks of treatment) was about 40%, the “gallbladder T-DCA abundance” value (Cyp2c70 KO mice [4]; male Cyp2c70 KO mice, 4 weeks) was “increasing” and the “liver CYP7A1 mRNA expression” value (Cyp2c70 KO mice [4]; male Cyp2c70 KO mice, 4 weeks) was “induction”. The “liver CYP8B1 mRNA expression” value (Cyp2c70 KO mice [4]; male Cyp2c70 KO mice, 4 weeks) was “induction”, the “fecal bile acid excretion” value (Cyp2c70 KO mice [4]; male Cyp2c70 KO mice, after 2 weeks of treatment) was “increased” and the “reduction of bile acid pool size” value (Cyp2c70 KO mice [4]; male Cyp2c70 KO mice, after 4 weeks of treatment) was about 60%.
